Assay results from ChEMBL document CHEMBL1909626, “4-N-Hydroxy-4-[1-(sulfonyl)piperidin-4-yl]-butyramides as HDAC inhibitors” (Bioorg Med Chem Lett, 2011).

What was measured:
[1] = biological target: T1, Histone deacetylase (Homo sapiens) (UniProt Q13547+O15379+Q9UBN7+Q92769+Q9UQL6+Q8WUI4+Q9BY41+Q96DB2+P56524+Q9UKV0+Q969S8); details: HeLa, at 1 µM
Description: Inhibition of HDAC in human HeLa cell extract assessed as fluorophore release at 1 uM by fluorescence spectrophotometry

[2] = biological target: T1, Histone deacetylase (Homo sapiens); details: HeLa, at 0.1 µM
Description: Inhibition of HDAC in human HeLa cell extract assessed as fluorophore release at 0.1 uM by fluorescence spectrophotometry

HCT-116 = assay: Growth inhibition of human HCT116 cells after 5 days by alamar blue assay; type: functional; details: HCT-116, 120 h
Histone deacetylase = assay: Inhibition of HDAC in human HeLa cell extract assessed as fluorophore release by fluorescence spectrophotometry; type: protein assay
[3] = biological target: T1, Histone deacetylase (Homo sapiens); details: HeLa, at 10 µM
Description: Inhibition of HDAC in human HeLa cell extract assessed as fluorophore release at 10 uM by fluorescence spectrophotometry

[4] = Fraction unbound in plasma; type: ADME, cell-free
Liver = assay: Metabolic stability in rat liver S9 fraction assessed as compound remaining; type: ADME, subcellular

| SMILES | inhibition [1] [%] | inhibition [2] [%] | GI50 (HCT-116) [nM] | IC50 (Histone deacetylase) [nM] | inhibition [3] [%] | fraction unbound [4] | Stability (Liver) [%] |
| --- | --- | --- | --- | --- | --- | --- | --- |
| Cc1cc(C)c(S(=O)(=O)N2CCC(CCCC(=O)NO)CC2)c(C)c1 | 75 | 32 |  |  |  |  |  |
| Cc1cc(S(=O)(=O)N2CCC(CCCC(=O)NO)CC2)cc2ccccc12 | 82 | 48 | 17300 | 124 | 86 |  |  |
| O=C(CCCC1CCN(S(=O)(=O)Cc2ccccc2)CC1)NO | 58 | 17 | 3200 |  | 71 |  |  |
| O=C(CCCC1CCN(S(=O)(=O)c2ccc3c(c2)OCCO3)CC1)NO | 68 | 29 |  |  |  |  |  |
| CN1CCOc2cc(S(=O)(=O)N3CCC(CCCC(=O)NO)CC3)ccc21 | 71 | 32 |  |  |  |  |  |
| COc1ccc(S(=O)(=O)N2CCC(CCCC(=O)NO)CC2)c(OC)c1 | 62 | 22 |  |  | 83 |  |  |
| Cc1cc(C)cc(S(=O)(=O)N2CCC(CCCC(=O)NO)CC2)c1 | 65 | 22 |  |  | 86 |  |  |
| O=C(CCCC1CCN(S(=O)(=O)Nc2ccccc2)CC1)NO | 70 | 40 | 2000 |  |  |  |  |
| CN(Cc1ccccc1)S(=O)(=O)N1CCC(CCCC(=O)NO)CC1 | 56 | 29 |  |  |  |  |  |
| O=C(CCCC1CCN(S(=O)(=O)c2ccc3ncsc3c2)CC1)NO | 69 | 26 |  |  | 84 |  |  |
| CC1(C)CCc2cc(S(=O)(=O)N3CCC(CCCC(=O)NO)CC3)ccc2O1 | 75 | 30 |  |  | 86 |  |  |
| O=C(CCCC1CCN(S(=O)(=O)c2cccc(C(F)(F)F)c2)CC1)NO | 57 | 13 |  |  |  |  |  |
| O=C(CCCC1CCN(S(=O)(=O)NCc2ccccc2)CC1)NO | 65 | 29 |  |  |  |  |  |
| O=C(CCCC1CCN(S(=O)(=O)c2cccc3ccccc23)CC1)NO | 80 | 40 | 1040 | 181 | 74 | 0.03 | 14 |
| O=C(CCCC1CCN(S(=O)(=O)c2ccccc2Cl)CC1)NO | 77 | 42 | 2800 | 173 | 86 |  |  |
| CN(c1ccccc1)S(=O)(=O)N1CCC(CCCC(=O)NO)CC1 | 48 | 19 |  |  |  |  |  |
| O=C(CCCC1CCN(S(=O)(=O)c2ccc3c(c2)CCO3)CC1)NO | 72 | 36 |  |  |  |  |  |
| O=C(CCCC1CCN(S(=O)(=O)c2cccc(-c3cnco3)c2)CC1)NO | 75 | 38 |  | 213 | 85 |  |  |
| O=C(/C=C/CC1CCN(S(=O)(=O)c2ccccc2)CC1)NO | 48 | 19 |  |  | 78 |  |  |
| COc1ccc(S(=O)(=O)N2CCC(CCCC(=O)NO)CC2)cc1OC | 71 | 31 |  | 317 | 84 |  |  |
| O=C(CCCC1CCN(S(=O)(=O)c2ccc3ccccc3c2)CC1)NO | 68 | 53 | 1900 | 128 | 86 | 0.02 | 2 |
| O=C(CCCC1CCN(S(=O)(=O)c2ccccc2C(F)(F)F)CC1)NO | 69 | 30 |  |  |  |  |  |
| O=C(CCCC1CCN(S(=O)(=O)c2ccccc2O)CC1)NO | 75 | 37 |  |  | 84 |  |  |

Continued, values first:

| inhibition [1] [%] | inhibition [2] [%] | GI50 (HCT-116) [nM] | IC50 (Histone deacetylase) [nM] | inhibition [3] [%] | fraction unbound [4] | Stability (Liver) [%] | SMILES |
| --- | --- | --- | --- | --- | --- | --- | --- |
| 40 | 4 |  |  |  |  |  | O=C(CCCC1CCN(S(=O)(=O)c2cccc(Cl)c2)CC1)NO |
| 61 | 24 |  |  | 83 |  |  | Cc1cccc(S(=O)(=O)N2CCC(CCCC(=O)NO)CC2)c1 |
| 67 | 28 |  |  | 83 |  |  | COc1cccc(S(=O)(=O)N2CCC(CCCC(=O)NO)CC2)c1 |
| 60 | 21 |  |  |  |  |  | O=C(CCCC1CCN(S(=O)(=O)c2ccc(F)cc2)CC1)NO |
| 62 | 25 |  |  |  |  |  | O=C(CCCC1CCN(S(=O)(=O)c2ccc(Cl)cc2)CC1)NO |
| 66 | 18 |  | 537 | 84 |  |  | CC(C)c1ccc(S(=O)(=O)N2CCC(CCCC(=O)NO)CC2)cc1 |
| 55 | 15 |  |  |  |  |  | O=C(CCCC1CCN(S(=O)(=O)c2ccc(C(F)(F)F)cc2)CC1)NO |
| 51 | 9 |  |  |  |  |  | CC(C)(C)c1ccc(S(=O)(=O)N2CCC(CCCC(=O)NO)CC2)cc1 |
| 74 | 35 |  |  |  |  |  | O=C(CCCC1CCN(S(=O)(=O)c2ccc(-c3cnco3)cc2)CC1)NO |
| 71 | 28 |  |  |  |  |  | Cc1ccc(S(=O)(=O)N2CCC(CCCC(=O)NO)CC2)cc1 |
| 44 | 20 |  |  | 80 |  |  | O=C(CCCC1CCN(S(=O)(=O)c2ccc(-c3ccccc3)cc2)CC1)NO |
| 63 | 23 | 2700 |  | 84 |  |  | O=C(CCCC1CCN(S(=O)(=O)c2ccccc2)CC1)NO |
| 69 | 29 |  |  |  |  |  | Cc1ccccc1S(=O)(=O)N1CCC(CCCC(=O)NO)CC1 |
